This passage reports mortality results from patent EP4467535A1, “LACTAM PESTICIDAL COMPOUNDS” (priority 2023, dated 2024).

A word on the mortality: it is the percentage killed.

What all share (format): in vivo
For test [1], the system named is Boll weevil (Anthonomus grandis). The test is described as follows: Action on Boll weevil (Anthonomus grandis), 96-well microtiter plate insect diet test. The note with it: 120 h, egg and larval mortality visually assessed after 5 days, read-out: mortality in comparison with untreated controls. As for the experimental part: Example B3: Action on Boll weevil (Anthonomus grandis )
For evaluating control of boll weevil (Anthonomus grandis) the test unit consisted of 96-well-microtiter plates containing an insect diet and 5-10 A. grandis eggs.
The compounds were formulated using a solution containing 75% (v/v) water and 25% (v/v) DMSO. Different concentrations of formulated compounds were sprayed onto the insect diet at 5 µL, using a custom-built micro atomizer, at two replications.
After application, microtiter plates were incubated at about 25 + 1°C and about 75 + 5 % relative humidity for 5 days. Egg and larval mortality were then visually assessed.

For test [2], the system named is Tobacco budworm (Heliothis virescens). The test is described as follows: Action on Tobacco budworm (Heliothis virescens), 96-well microtiter plate insect diet test. The note with it: 120 h, egg and larval mortality visually assessed after 5 days, read-out: mortality in comparison with untreated controls. As for the experimental part: Example B5: Action on Tobacco budworm (Heliothis virescens)
For evaluating control of tobacco budworm (Heliothis virescens) the test unit consisted of 96-well-microtiter plates containing an insect diet and 15-25 H. virescens eggs.
The compounds were formulated using a solution containing 75% v/v water and 25% v/v DMSO. Different concentrations of formulated compounds were sprayed onto the insect diet at 10 µl, using a custom-built micro atomizer, at two replications.
After application, microtiter plates were incubated at about 28 + 1°C and about 80 + 5 % relative humidity for 5 days. Egg and larval mortality were then visually assessed.

For test [3], the system named is Yellow fever mosquito (Aedes aegypti). The experiment in a line: whole plant or invertebrate. To be noted: 48 h, larval mortality visually assessed after 2 days at 28 ± 1°C, read-out: mortality in comparison with untreated controls. As for the experimental part:
Example B1: Action on Yellow fever mosquito (Aedes aegypti)
For evaluating control of yellow fever mosquito (Aedes aegypti) the test unit consisted of 96-well-microtiter plates containing 200µL of tap water per well and 5-15 freshly hatched A. aegypti larvae.
The active compounds or mixtures were formulated using a solution containing 75% (v/v) water and 25% (v/v) DMSO. Different concentrations of formulated compounds or mixtures were sprayed onto the insect diet at 2.5µL, using a custom-built micro atomizer, at two replications.
For experimental mixtures in these tests identical volumes of both mixing partners at the desired concentrations respectively, were mixed together.
After application, microtiter plates were incubated at 28 ± 1°C, 80 ± 5 % relative humidity for 2 days. Larval mortality was then visually assessed.

Test [4] concerns Diamond back moth (Plutella xylostella). The experiment in a line: Action on Diamond back moth (Plutella xylostella), cabbage leaf dip test. The note with it: foliar, third instar larvae on dipped cabbage leaves, 72 hours after treatment, read-out: mortality in comparison with untreated controls. As for the experimental part:
Example B6: Action on Diamond back moth (Plutella xylostella)
The active compound is dissolved at the desired concentration in a mixture of 1:1 (v/v) distilled water: acetone. Surfactant (Kinetic® HV) is added at a rate of 0.01% (v/v). The test solution is prepared at the day of use.
Leaves of cabbage were dipped in test solution and air-dried. Treated leaves were placed in petri dishes lined with moist filter paper and inoculated with ten third instar larvae. Mortality was recorded 72 hours after treatment. Feeding damages were also recorded using a scale of 0-100%.

Test [5] deals with Southern armyworm (Spodoptera eridania), second instar larvae. The experiment in a line: Action on Southern armyworm (Spodoptera eridania), sprayed lima bean plants. The note with it: 96 h, 4 days after treatment, read-out: mortality in comparison with untreated controls. As for the experimental part:
Example B7: Action on Southern armyworm (Spodoptera eridania), second instar larvae
The active compounds were formulated by a Tecan liquid handler in 100% cyclohexanone as a 10,000 ppm solution supplied in tubes. The 10,000 ppm solution was serially diluted in 100% cyclohexanone to make interim solutions. These served as stock solutions for which final dilutions were made by the Tecan in 50% acetone:50% water (v/v) into 10 or 20 mL glass vials. A nonionic surfactant (Kinetic®) was included in the solution at a volume of 0.01% (v/v). The vials were then inserted into an automated electrostatic sprayer equipped with an atomizing nozzle for application to plants/insects.
Lima bean plants (variety Sieva) were grown 2 plants to a pot and selected for treatment at the 1st true leaf stage. Test solutions were sprayed onto the foliage by an automated electrostatic plant sprayer equipped with an atomizing spray nozzle. The plants were dried in the sprayer fume hood and then removed from the sprayer. Each pot was placed into perforated plastic bags with a zip closure. About 10 to 11 armyworm larvae were placed into the bag and the bags zipped closed. Test plants were maintained in a growth room at about 25°C and about 20-40% relative humidity for 4 days, avoiding direct exposure to fluorescent light (24 hour photoperiod) to prevent trapping of heat inside the bags. Mortality and reduced feeding were assessed 4 days after treatment, compared to untreated control plants.

The subject of test [6] is Orchid thrips (Dichromothrips corbetti). The experiment in a line: Action on Orchid thrips (Dichromothrips corbetti), floral-immersion technique. The note with it: adult thrips on dipped orchid petals, 72 hours after treatment, read-out: mortality in comparison with untreated controls. The protocol: Example B2: Action on Orchid thrips (Dichromothrips corbetti)
Dichromothrips corbetti adults used for bioassay were obtained from a colony maintained continuously under laboratory conditions. For testing purposes, the test compound is diluted in a 1:1 mixture of acetone:water (vol:vol), plus Kinetic® HV at a rate of 0.01% v/v.
Thrips potency of each compound was evaluated by using a floral-immersion technique. All petals of individual, intact orchid flowers were dipped into treatment solution and allowed to dryin Petri dishes. Treated petals were placed into individual re-sealable plastic along with about 20 adult thrips. All test arenas were held under continuous light and a temperature of about 28°C for duration of the assay. After 3 days, the numbers of live thrips were counted on each petal. The percent mortality was recorded 72 hours after treatment.

Test [7] deals with Diamond back moth (Plutella xylostella). The experiment in a line: Action on Diamond back moth (Plutella xylostella), 96-well microtiter plate insect diet test. To be noted: 120 h, read-out: mortality in comparison with untreated controls. The protocol:
Example B8: Action on Diamond back moth (Plutella xylostella)
For evaluating control of diamond back moth (Plutella xylostella) the test unit consisted of 96-well-microtiter plates containing an insect diet and 15-25 P. xylostella eggs. The compounds or mixtures were formulated using a solution containing 75% water and 25% DMSO. Different concentrations of formulated compounds or mixtures were sprayed onto the insect diet at 5µl, using a custom-built micro atomizer, at two replications. For experimental mixtures in these tests identical volumes of both mixing partners at the desired concentrations respectively, were mixed together. After application, microtiter plates were incubated at 28 ± 1°C, 80 ± 5 % relative humidity for 5 days. Egg and larval mortality was then visually assessed.

As for `Cc1ccc(C(C)C)c(N2C(=O)CS/C2=N\C(=O)Nc2ccc(-c3nn(C)c(N4CCc5cc(OC(F)(F)F)ccc5C4=O)c3C)cc2Cl)c1` [C-12, (3Z)-1-[2-chloro-4-[1,4-dimethyl-5-[1-oxo-6-(trifluoromethoxy)-3,4-dihydroisoquinolin-2-yl]pyrazol-3-yl]phenyl]-3-[3-(2-isopropyl-5-methyl-phenyl)-4-oxo-thiazolidin-2-ylidene] urea], the figures for the mortality at 800 ppm in test [1], in test [2] and in test [3] were at least 75%, at least 75% and at least 50%, respectively. For the same molecule, the mortality at 300 ppm in test [4], in test [5] and in test [6] was at least 75% each time.
As to `Cc1ccc(C(C)C)c(N2C(=O)CS/C2=N\N=C\c2ccc(-c3nc(N4CCc5cc(OC(F)(F)F)ccc5C4=O)n(C)n3)cc2)c1` [C-9, (2Z)-3-(2-isopropyl-5-methyl-phenyl)-2-[(E)-[4-[1-methyl-5-[1-oxo-6-(trifluoromethoxy)-3,4-dihydroisoquinolin-2-yl]-1,2,4-triazol-3-yl]phenyl]methylenehydrazono] thiazolidin-4-one], the mortality at 800 ppm in test [1] was at least 75%; in test [2], at least 75%; in test [7] it was at least 75%; in test [3] it was at least 50%. The mortality at 300 ppm in test [5] and in test [6] was at least 75% throughout.
Take `Cc1ccc(C(C)C)c(N2C(=O)CS/C2=N\C(=O)Nc2ccc(-c3nn(C)c(N4CCc5cc(OC(F)(F)F)ccc5C4=O)c3C)cc2)c1` [C-11, (3Z)-1-[4-[1,4-dimethyl-5-[1-oxo-6-(trifluoromethoxy)-3,4-dihydroisoquinolin-2-yl]pyrazol-3-yl]phenyl]-3-[3-(2-isopropyl-5-methyl-phenyl)-4-oxo-thiazolidin-2-ylidene]urea]: the figures for the mortality at 800 ppm in test [1], in test [2] and in test [3] were at least 75%, at least 75% and at least 50%, respectively. Also, the mortality at 300 ppm in test [4], in test [5] and in test [6] was at least 75% throughout.
On to `CCOC(=O)OCS/C(=N\N=C\c1ccc(-c2nn(C)c(N3Cc4cc(OC(F)(F)F)ccc4C3=O)c2C)cc1)Nc1cc(C)ccc1C(C)C` [C-4, [(Z)-N'-[(E)-[4-[1,4-dimethyl-5-[1-oxo-5-(trifluoromethoxy)isoindolin-2-yl]pyrazol-3-yl]phenyl]methyleneamino]-N-(2-isopropyl-5-methyl-phenyl)carbamimidoyl]sulfanylmethyl ethyl carbonate], for which the mortality at 800 ppm in test [1] was at least 75%; in test [2] it was at least 75%; in test [7], at least 75%; in test [3], at least 50%. Also, the mortality at 300 ppm in test [5] and in test [6] was at least 75% throughout.
In the case of `Cc1ccc(C(C)C)c(NC(=S)N/N=C/c2ccc(-c3nn(C)c(N4Cc5cc(OC(F)(F)F)ccc5C4=O)c3C)cc2)c1` [C-1, 1-[(E)-[4-[1,4-dimethyl-5-[1-oxo-5-(trifluoromethoxy)isoindolin-2-yl]pyrazol-3-yl]phenyl]methyleneamino]-3-(2-isopropyl-5-methyl-phenyl)thiourea], the mortality at 800 ppm in test [1] was at least 75%; in test [2], at least 75%; in test [3] it was at least 50%. For the same molecule, the mortality at 300 ppm in test [4], in test [5] and in test [6] was at least 75% in each case.
Regarding `Cc1ccc(C(C)C)c(NC(=S)N/N=C/c2ccc(-c3nn(C)c(N4CCc5cc(OC(F)(F)F)ccc5C4=O)c3C)cc2)c1` [C-7, 1-[(E)-[4-[1,4-dimethyl-5-[1-oxo-6-(trifluoromethoxy)-3,4-dihydroisoquinolin-2-yl]pyrazol-3-yl]phenyl]methyleneamino]-3-(2-isopropyl-5-methyl-phenyl)thiourea], the mortality at 800 ppm was at least 75% in test [1], at least 75% in test [2], at least 75% in test [7] and at least 50% in test [3]. For the same molecule, the mortality at 300 ppm in test [5] and in test [6] was at least 75% throughout.
Take `Cc1ccc(C(C)C)c(N2C(=O)CS/C2=N\N=C\c2ccc(-c3nn(C)c(N4CCc5cc(OC(F)(F)F)ccc5C4=O)c3C)cc2)c1` [C-8, (2Z)-2-[(E)-[4-[1,4-dimethyl-5-[1-oxo-6-(trifluoromethoxy)-3,4-dihydroisoquinolin-2-yl]pyrazol-3-yl]phenyl]methylenehydrazono]-3-(2-isopropyl-5-methyl-phenyl)thiazolidin-4-one]: the mortality at 800 ppm was at least 75% in test [1], at least 75% in test [2] and at least 50% in test [3]. For the same molecule, the mortality at 300 ppm in test [4], in test [5] and in test [6] was at least 75% in each case.
`Cc1ccc(C(C)C)c(N/C(=N/N=C/c2ccc(-c3nn(C)c(N4Cc5cc(OC(F)(F)F)ccc5C4=O)c3C)cc2)SCOC(=O)C(C)C)c1` [C-3, [(Z)-N'-[(E)-[4-[1,4-dimethyl-5-[1-oxo-5-(trifluoromethoxy)isoindolin-2-yl]pyrazol-3-yl]phenyl]methyleneamino]-N-(2-isopropyl-5-methyl-phenyl)carbamimidoyl]sulfanylmethyl 2-methylpropanoate]: the mortality at 800 ppm in test [1] is at least 75%; in test [2] it was at least 75%; in test [7], at least 75%; in test [3] it was at least 50%. Also, the mortality at 300 ppm in test [5] and in test [6] was at least 75% in each case.
